What was measured:
[1] = test system: Carrageenin-Induced Foot Edema; experiment: Inhibition for carrageenin-induced foot edema in rats; format: in vivo, Wister strain male rats; conditions: Rattus norvegicus, po, 1 hour before carrageenin, paw volume 3 hours after, probit method, read-out: ED30 (dosage for 30% inhibition of edema)
Protocol: 10 Wister strain male rats weighing about 120 g were used in each group. Each compound of this invention was suspended in a 5% aqueous arabic gum solution and administered orally to the animals. One hour after the administration, 0.1 ml of a 1% solution of carrageenin in physiological saline as a phlogistic agent was subcutaneously injected into the right hind paw of the rats which had been shaven previously. The volume of the right hind paw was measured before the administration of the phlogistic agent and 3 hours after the administration. The intensity of edema expressed as percent increase in the foot volume was calculated from the […] (1) and the percent inhibition of edema was calculated from the equation (2). [formula]
The effective dosage of each compound for inhibiting edema was expressed as ED30 (mg/kg) by calculating the dosage for 30% inhibition from the percent inhibition of edema according to the probit method.

[2] = Properties of respective derivatives (solubility); format: physicochemical
[3] = Acute oral toxicity in mice; conditions: mouse, in vivo, mortality 7 days after administration
Protocol: 10 ddY Strain male mice weighing about 20 g were used in each group. Each compound of this invention was suspended in a 5% aqueous gum arabic solution and administered orally. The mortality rate (%) was determined from the number of dead animals 7 days after the administration, and the dosage corresponding to 50% mortality was calculated and expressed as LD50 (mg/kg).

rats = experiment: Diuretic effect in rats; format: in vivo, Wister strain male rats; conditions: Rattus norvegicus, po, 5 h, urine volume up to 5 hours, % of control
Protocol: Wister strain male rats weighing about 200 g were starved overnight and each compound of this invention suspended in 25 ml/kg of physiological saline were administered orally to the 5 animals in each group, and the diuretic effect up to 5 hours after the administration was measured. The diuretic effect is expressed as the average urine volume (%) of the treated group divided by that of the control group.

Compound | ED30 [1] [mg/kg] | Solubility in ethanol and dichloromethane [2] | Solubility in water and hexane [2] | LD50 at 168 h [3] [mg/kg] | response vs control in vivo at 10 mg/kg (rats; dosage 10 mg/kg) [%] | response vs control in vivo at 20 mg/kg (rats; dosage 20 mg/kg) [%] | response vs control in vivo at 50 mg/kg (rats; dosage 50 mg/kg) [%]
CN(C)C(=O)N1CCC(=NO)c2cc(Cl)ccc21 [XXII, 6-Chloro-4-oximino-1-dimethylcarbamoyl-1,2,3,4-tetrahydroquinoline] | 34 | soluble | Sparingly soluble | > 5000 | 198 | 263 | –
CN(C)C(=O)N1CCC(=NO)c2cc(Br)ccc21 [XXIII, 6-Bromo-4-oximino-1-dimethylcarbamoyl-1,2,3,4-tetrahydroquinoline] | 51 | soluble | Sparingly soluble | > 5000 | – | – | 200

From patent US4440770A, “Diuretic, hypotensive and antiedemic quinoline oximes” (Mochida Seiyaku Kabushiki Kaisha, priority 1980, dated 1984)
